Measured values taken from patent publication US20070009593A1, “Methods of treating cancer” (Indianan University Advanced Research, priority 2002, published 2007).
Peptide text beside a SMILES is read from it. * marks the point of attachment. Cbz = O=C(OCc1ccccc1)*

Columns and labels:
Caco 2 cells = experiment: proliferation / combination assay in colon cancer cells; format: cell-based; conditions: Homo sapiens; Caco 2, single agent; read-out: IC50
A549 [1] = experiment: MTT assay, NSCLC cell line; format: cell-based; conditions: Homo sapiens; for IC80: A549, MTT assay, single agent; for IC50: MTT assay
H460 [2] = experiment: MTT assay, NSCLC cell line; format: cell-based; conditions: Homo sapiens; for IC50: NCI-H460; for IC80: NCI-H460, single agent
MDA-231 = experiment: MTT assay, breast cancer line; format: cell-based; conditions: Homo sapiens, MDA-MB-231; MDA-231, 48 hours, MTT, single agent; read-out: IC50
Description: The drugs were tested together at the ratio of their IC50 as single agents, over a 4-log range of concentrations. […] Viable cell number was measured by MTT assay.

H522 = experiment: MTT assay, NSCLC cell line; format: cell-based; conditions: Homo sapiens; for IC50: NCI-H522; for IC80: NCI-H522, single agent
H23 [3] = experiment: MTT assay, NSCLC cell line; format: cell-based; conditions: Homo sapiens, NCI-H23
[4] = target: T1, chymotryptic active site of the proteasome (ZGGL-AMC cleavage) (Homo sapiens, UniProt P28074); experiment: fluorometric assay of ZGGL-AMC cleavage by Caco 2 cells; format: cell-based; conditions: for ZGGL-AMC cleavage: Caco 2 cells (DMSO control 0.287)
T1 construct: Fluorometric assay of ZGGL-AMC cleavage by Caco 2 cells; endogenous in cells; host or cells: Caco 2

HUVEC = HUVEC cell spreading assay; format: cell-based, human; conditions: 100 μM, same spreading conditions
Description: Cells were fixed in 3.7% formaldehyde in PBS, blocked and stained with Oregon-green phalloidin 514 (Molecular Probes), and then digitally photographed using a Zeiss inverted fluorescence microscope equipped with a CCD camera. Cell areas were measured on the digital images using the Spot program (Diagnostic Imaging).

H23 [5] = experiment: cell survival at 60 hours, amprenavir; format: cell-based; conditions: H23, 60 hours, FIG. 4
Source text: (§1) Three cancer cell lines (A549, H460, and H23) where treated with varying doses of amprenavir.

H460 [6] = experiment: cell survival at 60 hours, amprenavir; format: cell-based; conditions: H460, 60 hours, FIG. 4
Source text: as §1

A549 [7] = experiment: cell survival at 60 hours, amprenavir; format: cell-based; conditions: A549, 60 hours, FIG. 4
Source text: as §1

Cc1ccc(-c2cc(C(F)(F)F)nn2-c2ccc(S(N)(=O)=O)cc2)cc1 [Celecoxib, celecoxib]
IC50 (Caco 2 cells): 60000 nM

CC(=O)O[C@@]12CO[C@@H]1C[C@H](O)[C@@]1(C)C(=O)[C@H](O)C3=C(C)[C@@H](OC(=O)[C@H](O)[C@@H](NC(=O)OC(C)(C)C)c4ccccc4)C[C@@](O)([C@@H](OC(=O)c4ccccc4)[C@H]21)C3(C)C [Docetaxel, docetaxel]
IC50 (Caco 2 cells): 5 nM
IC80 (A549 [1]): > 50 nM
IC50 (A549 [1]): 4.5 nM
IC50 (H460 [2]): 5 nM
IC80 (H460 [2]): > 50 nM
IC50 (MDA-231): 10 nM
IC50 (H522): 4.9 nM
IC80 (H522): > 50 nM
IC50 (H23 [3]): 5.5 nM

O=c1[nH]cc(F)c(=O)[nH]1 [Formula 5-FU, 5-fluorouracil]
IC50 (Caco 2 cells): 28000 nM

CC(=O)N[C@@H](CSC(=O)[C@]1([C@@H](O)C(C)C)NC(=O)[C@H](C)[C@@H]1O)C(=O)O [Lactacystin, lactacystin]
blocks substrate cleavage (ZGGL-AMC) ([4]; 5 μM, Caco 2 cells): over 95%
ZGGL-AMC cleavage ([4]; 5 μM): 0.022 pmol·s^1− 10^6 cells

CC(C)[C@H](NC(=O)OCc1ccccc1)C(=O)N[C@H](C=O)Cc1ccccc1 [MDL 28, 170] (Cbz-Val-Phe-aldehyde)
blocked spreading (HUVEC): 21%

O=C(O)/C(S)=C/c1ccc(I)cc1 [PD150606]
ZGGL-AMC cleavage ([4]; 50 μM): 0.187 pmol·s^1− 10^6 cells
blocks ZGGL-AMC cleavage ([4]; Caco 2 cells (50 μM in table)): less than 30%

CC(=O)O[C@H]1C(=O)[C@@]2(C)[C@H]([C@H](OC(=O)c3ccccc3)[C@]3(O)C[C@H](OC(=O)[C@H](O)[C@@H](NC(=O)c4ccccc4)c4ccccc4)C(C)=C1C3(C)C)[C@]1(OC(C)=O)CO[C@@H]1C[C@@H]2O [Paclitaxel, paclitaxel]
IC50 (Caco 2 cells): 400 nM
IC80 (A549 [1]): > 200 nM
IC50 (A549 [1]): 90 nM
IC50 (H460 [2]): 120 nM
IC80 (H460 [2]): > 200 nM
IC50 (H522): 105 nM
IC80 (H522): > 200 nM
IC50 (H23 [3]): 110 nM

amprenavir
IC50 (H23 [5]): 4000 to 5000 nM
IC50 (H460 [6]): 4000 to 5000 nM
IC50 (A549 [7]): 4000 to 5000 nM
